Experimental data taken from patent US20120101121A1, “DRUG DEMONSTRATING ANXIOLYTIC EFFECT BASED ON HYDROGENATED PYRIDO (4,3-B) INDOLES, ITS PHARMACOLOGICAL COMPOUND AND APPLICATION METHOD” (Medivation Neurology ,Inc., priority 2007, published 2012).

Legend:
[1] = test system: white outbred male rats; assay: Elevated plus-maze (EPM) in rats; details: for Latent time / Number of entries into bright arms / Number of entries into dark arms / Time in bright arms / Total number of crossings: 40 min after dosing, 5 min observation
Procedure: The model is based on stress and fear, which appear in animals while displaying orientation-investigative behavior and burrowing reflex under the complicated conditions of elevated plus-maze (novelty of surroundings, fear of height and illumination).
EPM for rats is performed in a chamber consisting of four compartments formed by the crossing of two strips measuring 50×10 cm. Two opposing compartments have vertical walls 40 cm high (protected dark arms), while two others (unprotected open bright arms) are free from protective walls. The maze is elevated 50 cm off the floor. At the center of the chamber where the two strips cross, there is a central platform measuring 10×10 cm. Rats were placed on the central platform with their tails facing an open bright arm. Time remaining on the central platform, time spent by the animals inside the open arms, and the number of entries into open and closed arms were recorded. The total observation time for each animal was 5 minutes. The main criterion of anxiolytic effect is the measure of time spent in the open bright arm of the setup. The number of crossings the central platform (number of entries into the dark and bright arms of the maze and the sum thereof) was used to estimate the effect of compounds on orientation-investigative behavior and motion activity of rats.
Experiments were conducted using white outbred male rats weighing 240 g to 280 g. Before beginning the test, experimental animals were randomly separated into groups of at least 10 rats. […] Rats in the control group received 0.2 ml water per 100 g mass administered intraperitoneally. Data was recorded beginning forty minutes after administration of the compounds.

[2] = test system: outbred white male rats; assay: Vogel conflict situation test (punishable drinkings); assay type: in vivo, rat; details: for No. of punishable drinkings: 40 min before test, 10 min registration
Procedure: 93-113). Such conflict situations most frequently lead to stress and neurotic diseases.
The tests were conducted using outbred white male rats with body weights between 220 g and 250 g. […] The conflict situation was created by suppressing the drinking reflex during water consumption from the drinking tube using algesic electric stimulus (i.e., electric shock causing pain). Thus, the Vogel conflict method is based on the conflict of two motivations: drinking and defensive. Thus, the animal fears punishment when attempting to satisfy its thirst, and that fear suppresses typical animal behavior. The animal cannot satisfy its thirst, creating an imbalance between what is desirable and what is real, thereby resulting in a stressful situation, accompanied by anxiety and fear of receiving an additional algesic electric stimulus. If a test compound has anxiolytic effect, it will enable the animal to overcome anxiety and fear of the punishment factor, restoring the ability to drink despite the possibility of receiving additional algesic electric stimuli, measured as an increase in incidents of punishable responses, i.e., drinking, despite the continued risk of receiving algesic electric stimuli.
The experimental setup consists of three parts: 4 experimental chambers, an electronic unit and a counting device. The experimental chamber measures 275×275×450 mm and is made of Plexiglas. It is installed on a standard electrode floor made of 4 mm diameter stainless steel rods spaced by 8-10 mm apart. Attached to the side wall of each chamber is a standard drinking tube attached to a glass container including a stainless steel nipple. In the device, the drinking tube is installed within common space of the chamber, not in the darkened section. The nipple extends 2 cm into the chamber at a height of 5 cm from the floor. The reason for such arrangement is that once exposed to a new environment, the animals instinctively attempt to hide in the dark section, and therefore may accidentally find a drinking tube, not as a consequence of purposeful search to satisfy the motivation. The electrode floor and the nipple of the drinking tube are connected to the electronic unit. The electronic unit contains current stabilizers (one per channel, which provides the possibility of independent current regulation), output signal generators for the counting device and delay generators for supplying punishing current to the drinking tube during the day of the experiment. That arrangement permits registration of non-punishable drinkings while establishing a drinking habit (trainings without supplying current to the drinking tubes), administration of a punishment current, and recordation of signals from punishable drinkings during the experiment.
The counting device enables registration of non-punishable drinkings during training and punishable drinkings during the experiment. Registration of readings was conducted using Pentium III personal computer with a 550 MHz C.P.U., a special device for converting output signals from the electronic unit into standard pulses suitable for inputting to the computer via a serial port, and a program written in BASIC (Beginner's All-Purpose Symbolic Instruction Code) for recording events and time intervals into disc files. The data accumulated in these files was later analyzed with the statistical package Statistica® for Windows®.
The experiment was conducted for 3 days. On the first day, the animals were completely deprived of water. On the second day, i.e., after 24-hours without water, animals were allowed to establish a habit of taking water from the drinking tube. To achieve this, animals were placed in the experimental chamber for 5 minutes. Typically, each animal surveyed the chamber and after a period of time found a drinking tube and started to drink. On the […] day, a weak current of 50 μA was applied to the drinking tube and the chamber floor. […]

[3] = test system: white outbred male rats; assay: Open field test under stress; details: for Exits to the center of the field / Horizontal activity / Surveyed holes / Vertical activity: 40 min after dosing, 3 min observation
Procedure: The “open field” test uses a method of creating stress based on a rat's fear of new surroundings, open space and bright illumination.
An open field setup used in this study consisted of a one meter square box (1 m×1 m×1 m) with a clear top. The floor of the chamber was uniformly divided by lines into 9 squares, with 16 2.5 cm diameter holes. Before the experiment, rats were kept in the dark for 10 minutes, after which they were placed onto one of the peripheral squares of the open field. […] During the experiment the following information was recorded: the number of crossed squares on the periphery and in the center (separately), the number of vertical stands, the number of times holes were surveyed, and the number of exits to the center of the open field.
The main indicator of anxiolytic effect of the drugs was the measure of number of exits by the rat to the center of illuminated field. Increase or decrease in the number of horizontal or vertical movements reflected sedative or stimulating effect of the drug, while the number of holes surveyed reflects orientation-investigative behavior of the rat.
Experiments were conducted using white outbred male rats weighing 240 g to 280 g. Before the beginning of the test, experimental animals were randomly separated into groups containing at least 10 rats. […] Rats in the control group received 0.2 ml water per 100 g mass administered intraperitoneally. Data was recorded beginning 40 minutes after administering the compounds.

[4] = test system: AMPA receptors; details: cerebral neurons in rats; cited from earlier work
[5] = test system: SAM-P/10 mice; assay: Elevated plus-maze in SAM-P/10 mice with genetically determined anxiety; assay type: in vivo, mouse; details: 11-month old SAM-P/10 mice; for Latent time / Number of entries into bright arms / Number of entries into dark arms / Time in bright arms / Total number of crossings: 40 min prior to testing, 5 min observation
Description: One of the modern methods of studying the anxiolytic effect of drugs uses a mouse strain with an increased level of anxiety. This study utilized mice of the SAM-P/10 line (Takeda, T., et al., “Senescence-Accelerated Mouse (SAM): A Novel Murine Model of Accelerated Senescence,” J. Amer. Geriatr. Soc., 1991, v. 39, pp. 911-919) weighing between 26 g and 31 g, in which, among other changes, a genetically determined anxiety is observed. […] Those symptoms actively accumulate beginning from the age of 6-months (accelerated aging) (Miyamoto, M., “Indicators of age-related behavioral changes in Senescence-Accelerated Mouse SAMP8 and SAMP10,” Exp. Gerontol., 1997, v. 32, pp. 139-148; and Shimada, A., et al., “Age-related deterioration in conditional avoidance task in the SAM-P/10 mouse, an animal model of spontaneous brain atrophy,” Brain Res., 1993, v. 608, pp. 266-272).
This study utilized SAM-P/10 (Senescence-Accelerated Mouse P10) mice in two age groups—3-months and 11-months old. A group of 3-month old animals and a group of 11-month old animals were each divided into three subgroups: one group received Dimebon at a dose of 0.05 mg/kg, the second group received Dimebon at a dose of 2 mg/kg, and the third group received physiological saline. All substances were administered intraperitoneally 40 minutes prior to testing in the amount of 0.1 ml per 10 g of mouse weight. This study was conducted during the first half of the day from 10:00 a.m. to 2:00 p.m.
The maze is elevated 30 cm off the floor. […] Time spent by mice in the open arms of the maze was used as a main indicator of anxiety level.

[6] = test system: NMDA receptors; details: cerebral neurons in rats; cited from earlier work

For CN1C(=O)CN=C(c2ccccc2)c2cc(Cl)ccc21 [Diazepam ®, reference compound], which “Sedative effect in elevated plus-maze (in words)” value ([1]; 2 mg/kg i.p.) is on record?
The value was “sedative, depriming effect”.

What about the “Latent time” value ([1]; 2.0 mg/kg i.p.) of the same compound?
Its value is 7.68 ± 2.0 s.

And the “Number of entries into bright arms” value ([1]; 2.0 mg/kg i.p.)?
The value was 2.12 ± 1.08.

What about the “Number of entries into dark arms” value ([1]; 2.0 mg/kg i.p.) of the same compound?
The value was 2.20 ± 0.47.

What about the “Time in bright arms” value ([1]; 2.0 mg/kg i.p.) of the same compound?
The value was 25.6 ± 6.87 s.

And the “Total number of crossings” value ([1]; 2.0 mg/kg i.p.)?
Its value is 4.32 ± 1.01.

What about the “No. of punishable drinkings” value ([2]; 2.0 mg/kg i.p.) of the same compound?
Its value is 372.71 ± 27.81.

What about the “Side effects at the anxiolytic dose (in words)” value ([2]; therapeutic dose of 2 mg/kg) of the same compound?
The value was “sedation, reduction in motion activity and impaired coordination”.

What about the “Effect on horizontal and vertical motion activity within the open field (in words)” value ([3]; 2 mg/kg) of the same compound?
The value was “significantly suppressed”.

And the “Exits to the center of the field” value ([3]; 2 mg/kg i.p.)?
The value was 1.8 ± 0.3.

And the Horizontal activity ([3]; 2 mg/kg i.p.)?
Its Horizontal activity is 10.2 ± 1.4.

What about the Surveyed holes ([3]; 2 mg/kg i.p.) of the same compound?
The Surveyed holes was 6.5 ± 1.9.

And the Vertical activity ([3]; 2 mg/kg i.p.)?
Its Vertical activity is 3.4 ± 1.3.

Which results are given for Cc1ccc2c(c1)c1c(n2CCc2ccc(C)nc2)CCN(C)C1 [Dimebon, 2,8-dimethyl-5-[2-(6-methyl-3-pyridyl)ethyl]-2,3,4,5-tetrahydro-1H-pyrido[4,3-b]indole]?
Time spent inside the open arms relative to control ([1]; 0.1 mg/kg i.p.): nearly five times as long as the control; Latent time ([1]; 0.1 mg/kg i.p.): 3.43 ± 0.53 s; Number of entries into bright arms ([1]; 0.1 mg/kg i.p.): 1.86 ± 1.00; Number of entries into dark arms ([1]; 0.1 mg/kg i.p.): 5.86 ± 1.53; Time in bright arms ([1]; 0.1 mg/kg i.p.): 20.00 ± 7.75 s; Total number of crossings ([1]; 0.1 mg/kg i.p.): 7.71 ± 2.25; Increase in the number of entries into the open arms ([1]; 2 mg/kg i.p.): more than twice; Latent time ([1]; 2.0 mg/kg i.p.): 2.93 ± 0.41 s; Number of entries into bright arms ([1]; 2.0 mg/kg i.p.): 4.25 ± 1.18; Number of entries into dark arms ([1]; 2.0 mg/kg i.p.): 7.10 ± 3.21; Time in bright arms ([1]; 2.0 mg/kg i.p.): 26.34 ± 8.12 s; Total number of crossings ([1]; 2.0 mg/kg i.p.): 11.60 ± 3.30; Increase in total number of crossings ([1]; 2 mg/kg i.p., P≦0.05): 2 times; No. of punishable drinkings ([2]; 0.05 mg/kg i.p.): 171.31 ± 15.67; No. of punishable drinkings ([2]; 0.1 mg/kg i.p.): 261.18 ± 29.74; No. of punishable drinkings ([2]; 2.0 mg/kg i.p.): 354.25 ± 32.49; No. of punishable drinkings ([2]; 5.0 mg/kg i.p.): 405.33 ± 26.35; Change in punishable drinkings versus control (in words) ([2]; dose range 0.1 to 5 mg/kg i.p.): statistically significant increase; Sedative and muscle relaxant side effects (in words) ([2]; doses 0.1-5.0 mg/kg): lacks the sedative and muscle relaxant side effects; Effect on transmembrane currents caused by activation of the AMPA receptors [4]: potentiates; Exits to the center of the field ([3]; 0.1 mg/kg i.p.): 0.8 ± 0.3; Horizontal activity ([3]; 0.1 mg/kg i.p.): 21.7 ± 5.9; Surveyed holes ([3]; 0.1 mg/kg i.p.): 12.3 ± 1.7; Vertical activity ([3]; 0.1 mg/kg i.p.): 7.8 ± 1.3; Exits to the center of the field ([3]; 2 mg/kg i.p.): 1.5 ± 0.2; Horizontal activity ([3]; 2 mg/kg i.p.): 20.3 ± 6.1; Surveyed holes ([3]; 2 mg/kg i.p.): 11.2 ± 2.6; Vertical activity ([3]; 2 mg/kg i.p.): 6.9 ± 3.2; Exits to the center of the field ([3]; 5 mg/kg i.p.): 2.2 ± 0.3; Horizontal activity ([3]; 5 mg/kg i.p.): 19.2 ± 2.4; Surveyed holes ([3]; 5 mg/kg i.p.): 13.5 ± 1.9; Vertical activity ([3]; 5 mg/kg i.p.): 9.3 ± 2.4; Effect on number of horizontal and vertical movements and surveyed holes (in words) ([3]; doses of 0.1, 2 and 5 mg/kg): did not cause a decrease; Anxiolytic effect in the open field test (in words) ([3]; doses of 2 and 5 mg/kg): significant, pronounced anxiolytic effect; Time spent in the open, unprotected arms relative to control (in words) ([5]; 0.05 mg/kg): doubled; Latent time ([5]; 0.05 mg/kg i.p.): 7.5 ± 1.5 s; Number of entries into bright arms ([5]; 0.05 mg/kg i.p.): 1.9 ± 1.0; Number of entries into dark arms ([5]; 0.05 mg/kg i.p.): 5.86 ± 1.53; Time in bright arms ([5]; 0.05 mg/kg i.p.): 8.7 ± 3.3 s; Total number of crossings ([5]; 0.05 mg/kg i.p.): 11.7 ± 1.5; Increase in the number of entries into the open arms ([5]; 2 mg/kg): more than 4 fold; Increase in the time spent in the open arms ([5]; 2 mg/kg): more than 4 fold; Latent time ([5]; 2.0 mg/kg i.p.): 6.0 ± 1.4 s; Number of entries into bright arms ([5]; 2.0 mg/kg i.p.): 4.2 ± 1.1; Number of entries into dark arms ([5]; 2.0 mg/kg i.p.): 7.10 ± 3.21; Time in bright arms ([5]; 2.0 mg/kg i.p.): 17.7 ± 5.2 s; Total number of crossings ([5]; 2.0 mg/kg i.p.): 18.1 ± 5.3; Effect on NMDA receptors [6]: blocking
